# Article PMC8259865, “Design and green synthesis of novel quinolinone derivatives of potential anti-breast cancer activity against MCF-7 cell line targeting multi-receptor tyrosine kinases” (Journal of Enzyme Inhibition and Medicinal Chemistry, 2021)
# Entries after “also recorded” stand apart in the source; their conditions may differ.
# What was measured:
# [1] = test system: human breast cancer MCF-7 cell line; assay: MTT cytotoxicity assay against MCF-7 breast cancer cells; format: cell-based; conditions: for IC50: Homo sapiens, MCF7, MTT assay, MCF-7 cells, average of at least three independent experiments, read-out: Anticancer activity against MCF-7 cells IC50 mean ± SD
# Description: MTT assay was used to evaluate the in vitro cytotoxicity of the new compounds against breast cancer cell lines MCF-7[38]. More details are present in the Supplementary file.
# S1: In vitro cytotoxicity experiment
# MTT assay was used to evaluate the in vitro cytotoxicity of the new compounds against breast cancer cell lines MCF-7 [39]. MTT assay depends on the reduction of the soluble 3-(4,5-methyl-2-thiazolyl)-2,5-diphenyl-2H-tetrazolium bromide (MTT) into a blue purple formazan product, mainly by mitochondrial reductase activity inside the living cells. The cells used in cytotoxicity […]
# at 37 °C in a 5% CO 2 incubator. After 12 h, the test sampl e (2 μL) was added to the cells (2 × 10 4) in 96-well plates and cultured at 37 ◦C for 3 days. The cultured cells were mixed with 20 μL of MTT solution and incubated for 4 h at 37 °C. The supernatant was carefully removed from each well and 100 μL of DMSO we re added to each well to dissolve the formazan crystals which were formed by the cellular reduction of MTT. […]
# normal WI38 cells = assay: MTT assay against normal WI38 cells (safety profile); format: cell-based, human; conditions: for IC50: Homo sapiens, WI-38, MTT assay, normal WI38 cells derived from lung tissues, read-out: IC50 against the normal WI38 cells mean ± SD; for IC50 against WI38 cells, fold higher than IC50 of staurosporine: relative to staurosporine; for IC50 against WI38 cells, fold higher than IC50 against cancer (MCF-7) cells: WI38 vs MCF-7
# Description: One of the characteristics differentiating different anticancer agents from each other is the recurrence and severity of their side effects to the normal cells at their therapeutic doses. […].
# MCF-7 cells [2] = assay: Annexin-V/PI apoptosis assay by flow cytometry; format: cell-based, human; conditions: compound at its IC50 concentration, 24 h
# Protocol: (§1) Cell cycle analysis and apoptosis investigation were carried out by flow cytometry.[39]^,[40] […] After treatment with the tested compound, for 24 h, cell pellets were collected and centrifuged (300 g, 5 min).
# Flow cytometry method[39]^,[49] has been used to detect the corresponding red (PI) and green (FITC) fluorescence. It has been noted that there was an increment in the percentages of the late apoptosis produced by the evaluated compounds 4b and 4j from 0.13% (control DMSO/MCF-7 cells) to 13.81% and 22.03%, respectively. Also, the tested compounds produced early apoptotic effects of 6.15% and 3.27% compared to 0.58% of the untreated MCF-7 cell with necrosis percent of 4.37% and 9.22%, respectively, vs. 0.66% produced by the DMSO control (Figures 4 and 5).
# MCF-7 cells [3] = assay: Cell cycle analysis by flow cytometry; format: cell-based, human; conditions: for %G0–G1 / %G2/M / %Pre-G1 / %S: compound at its IC50 concentration, 24 h
# Protocol: as §1
# The induction of apoptosis is one of the most crucial tools that confirm the effectiveness of cancer therapy. Cell cycle checkpoints are G1 (restriction or start), S ([…]), and G2/M. One of the main functions of the anticancer therapeutics is stoppage of the cell division at these checkpoints.[51] […] The cells were stained with Annexin V/PI and examined using flow cytometry procedure.
# PDGFR-α = assay: In vitro kinase inhibition assay, PDGFR-α; conditions: for IC50: read-out: PDGFR-α IC50
# Description: (§2) The procedure of the used kits was done according to the manufacturer, s instructions.
# (§3) Which are: EGFR, human epidermal growth factor receptor (HER2), PDGFR-α, and VEGFR-2.
# HER-2 = HER-2 (Homo sapiens, UniProt P04626); assay: In vitro kinase inhibition assay, HER-2 (ADP-Glo Kinase Assay)
# HER-2, sequence (P04626 23-1255): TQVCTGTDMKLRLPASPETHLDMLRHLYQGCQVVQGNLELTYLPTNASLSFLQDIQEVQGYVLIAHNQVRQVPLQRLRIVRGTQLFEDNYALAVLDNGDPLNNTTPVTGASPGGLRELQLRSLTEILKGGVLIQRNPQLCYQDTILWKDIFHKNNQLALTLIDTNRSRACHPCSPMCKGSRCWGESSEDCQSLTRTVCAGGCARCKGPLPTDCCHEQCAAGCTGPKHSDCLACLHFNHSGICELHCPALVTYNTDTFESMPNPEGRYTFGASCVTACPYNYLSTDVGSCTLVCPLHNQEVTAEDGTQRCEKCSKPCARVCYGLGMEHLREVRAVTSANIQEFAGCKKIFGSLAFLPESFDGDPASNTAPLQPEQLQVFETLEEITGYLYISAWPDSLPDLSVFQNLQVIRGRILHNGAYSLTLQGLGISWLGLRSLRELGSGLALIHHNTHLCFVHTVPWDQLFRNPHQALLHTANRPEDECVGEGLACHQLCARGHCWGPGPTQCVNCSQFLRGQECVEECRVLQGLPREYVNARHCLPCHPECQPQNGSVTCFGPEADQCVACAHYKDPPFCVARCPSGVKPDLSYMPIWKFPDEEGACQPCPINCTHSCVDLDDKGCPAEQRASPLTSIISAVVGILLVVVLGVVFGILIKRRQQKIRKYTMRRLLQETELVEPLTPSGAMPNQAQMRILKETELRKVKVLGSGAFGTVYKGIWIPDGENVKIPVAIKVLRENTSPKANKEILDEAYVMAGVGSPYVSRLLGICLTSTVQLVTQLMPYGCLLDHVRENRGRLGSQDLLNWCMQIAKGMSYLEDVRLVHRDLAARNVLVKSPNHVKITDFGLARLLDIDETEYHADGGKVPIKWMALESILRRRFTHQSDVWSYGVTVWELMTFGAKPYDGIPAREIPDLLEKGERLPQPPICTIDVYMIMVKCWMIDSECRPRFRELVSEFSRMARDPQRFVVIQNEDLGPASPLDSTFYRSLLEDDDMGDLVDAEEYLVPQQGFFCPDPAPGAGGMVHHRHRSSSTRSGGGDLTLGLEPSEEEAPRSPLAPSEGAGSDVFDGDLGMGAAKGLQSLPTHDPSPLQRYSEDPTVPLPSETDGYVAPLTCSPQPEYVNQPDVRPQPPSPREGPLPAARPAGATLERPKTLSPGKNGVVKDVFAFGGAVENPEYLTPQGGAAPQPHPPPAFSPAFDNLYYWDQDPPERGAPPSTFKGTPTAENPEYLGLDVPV
# Description: as §2, §3
# VEGFR-2 = VEGFR-2 (Homo sapiens, UniProt P35968); assay: In vitro kinase inhibition assay, VEGFR-2 (KDR Kinase Assay Kit)
# VEGFR-2, sequence (P35968 20-1356): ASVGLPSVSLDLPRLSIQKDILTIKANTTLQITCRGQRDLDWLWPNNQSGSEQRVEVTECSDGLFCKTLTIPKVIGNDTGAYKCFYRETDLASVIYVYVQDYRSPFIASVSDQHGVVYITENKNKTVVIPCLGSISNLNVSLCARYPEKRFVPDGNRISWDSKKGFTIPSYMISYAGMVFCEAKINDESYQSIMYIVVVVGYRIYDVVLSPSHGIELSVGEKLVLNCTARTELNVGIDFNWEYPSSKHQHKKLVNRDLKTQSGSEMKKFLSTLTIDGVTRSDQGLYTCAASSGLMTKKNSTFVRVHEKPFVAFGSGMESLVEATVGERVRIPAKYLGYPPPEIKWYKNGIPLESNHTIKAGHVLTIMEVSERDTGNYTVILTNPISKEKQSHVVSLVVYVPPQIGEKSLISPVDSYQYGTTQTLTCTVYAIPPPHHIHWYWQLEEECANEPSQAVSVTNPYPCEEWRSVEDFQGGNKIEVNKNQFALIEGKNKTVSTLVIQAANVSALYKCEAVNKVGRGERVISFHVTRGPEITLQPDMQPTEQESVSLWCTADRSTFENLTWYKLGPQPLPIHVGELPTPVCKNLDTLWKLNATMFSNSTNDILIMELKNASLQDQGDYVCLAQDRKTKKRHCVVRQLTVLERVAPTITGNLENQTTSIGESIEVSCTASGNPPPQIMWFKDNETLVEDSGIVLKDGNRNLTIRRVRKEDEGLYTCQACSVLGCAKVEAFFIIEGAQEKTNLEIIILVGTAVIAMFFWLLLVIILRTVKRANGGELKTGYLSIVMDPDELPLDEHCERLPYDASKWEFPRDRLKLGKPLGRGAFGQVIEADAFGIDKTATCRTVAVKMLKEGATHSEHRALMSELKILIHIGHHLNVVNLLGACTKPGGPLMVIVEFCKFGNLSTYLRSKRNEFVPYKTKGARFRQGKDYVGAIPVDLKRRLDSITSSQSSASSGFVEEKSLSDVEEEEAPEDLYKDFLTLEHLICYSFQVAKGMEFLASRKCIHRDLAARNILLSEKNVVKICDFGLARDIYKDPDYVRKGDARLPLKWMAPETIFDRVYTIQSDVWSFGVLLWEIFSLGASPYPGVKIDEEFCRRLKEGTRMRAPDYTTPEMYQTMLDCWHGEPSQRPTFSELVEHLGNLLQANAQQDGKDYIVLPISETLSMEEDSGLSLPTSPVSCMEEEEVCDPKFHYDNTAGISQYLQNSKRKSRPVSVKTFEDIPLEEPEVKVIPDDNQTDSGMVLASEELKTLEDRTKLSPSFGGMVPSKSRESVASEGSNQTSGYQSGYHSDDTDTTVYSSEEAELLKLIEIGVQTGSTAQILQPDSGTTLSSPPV
# Description: as §2, §3
# EGFR = EGFR (Homo sapiens, UniProt P00533); assay: In vitro kinase inhibition assay, EGFR (Abcam Human In cell ELISA Kit)
# EGFR, sequence (P00533 25-1210): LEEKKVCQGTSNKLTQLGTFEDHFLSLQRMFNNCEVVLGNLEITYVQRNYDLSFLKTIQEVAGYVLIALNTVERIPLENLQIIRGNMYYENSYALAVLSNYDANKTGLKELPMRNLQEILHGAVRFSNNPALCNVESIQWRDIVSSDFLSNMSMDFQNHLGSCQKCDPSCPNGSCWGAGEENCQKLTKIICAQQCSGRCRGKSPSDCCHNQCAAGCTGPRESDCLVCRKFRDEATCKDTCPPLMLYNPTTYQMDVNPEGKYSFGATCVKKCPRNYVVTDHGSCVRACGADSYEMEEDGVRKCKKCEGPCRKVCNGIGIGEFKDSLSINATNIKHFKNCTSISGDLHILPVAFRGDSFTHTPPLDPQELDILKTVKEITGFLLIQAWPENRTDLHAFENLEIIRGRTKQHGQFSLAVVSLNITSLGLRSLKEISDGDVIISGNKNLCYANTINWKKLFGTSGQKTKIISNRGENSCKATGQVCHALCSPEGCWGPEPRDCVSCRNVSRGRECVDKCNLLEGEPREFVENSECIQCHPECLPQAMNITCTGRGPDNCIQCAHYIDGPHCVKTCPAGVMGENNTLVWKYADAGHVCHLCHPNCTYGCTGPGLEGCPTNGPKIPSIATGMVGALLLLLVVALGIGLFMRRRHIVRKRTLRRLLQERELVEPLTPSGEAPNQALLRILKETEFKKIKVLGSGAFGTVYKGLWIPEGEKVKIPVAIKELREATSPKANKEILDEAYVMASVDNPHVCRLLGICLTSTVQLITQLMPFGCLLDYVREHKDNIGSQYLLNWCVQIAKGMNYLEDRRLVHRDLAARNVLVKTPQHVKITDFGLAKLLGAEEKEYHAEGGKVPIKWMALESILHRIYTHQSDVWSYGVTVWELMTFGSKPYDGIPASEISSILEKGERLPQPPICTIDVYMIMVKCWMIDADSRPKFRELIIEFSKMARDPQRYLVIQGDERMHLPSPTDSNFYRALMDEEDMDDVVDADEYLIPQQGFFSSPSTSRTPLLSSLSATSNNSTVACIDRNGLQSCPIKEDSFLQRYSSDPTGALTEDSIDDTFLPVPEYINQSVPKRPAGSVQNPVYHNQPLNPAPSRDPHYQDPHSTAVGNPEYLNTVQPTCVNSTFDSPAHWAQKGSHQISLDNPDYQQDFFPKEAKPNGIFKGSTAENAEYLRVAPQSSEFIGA
# Description: as §2, §3
smiles,measurement,setting,value
"COC(=O)C1=C(C)NC2=C(C(=O)CC(C)(C)C2)C1c1ccc(S(=O)(=O)c2ccccc2)cc1 (stereo not drawn) [Compound 4a, Methyl 2,7,7-trimethyl-5-oxo-4–(4-(phenylsulfonyl)phenyl)-1,4,5,6,7,8-hexahydroquinoline-3-carboxylate]",IC50,[1],103 ± 13 nM
"CCOC(=O)C1=C(C(F)(F)F)NC2=C(C(=O)CC(C)(C)C2)C1c1ccc(S(=O)(=O)c2ccccc2)cc1 (stereo not drawn) [Compound 4b, Ethyl 7,7-dimethyl-5-oxo-4–(4-(phenylsulfonyl)phenyl)-2-(trifluoromethyl)-1,4,5,6,7,8-hexahydroquinoline-3-carboxylate]",IC50,[1],2 ± 1 nM
same,fold more potent than staurosporine against MCF-7,"[1]; ratio of IC50 values, MCF-7",about 2.5 fold
same,IC50,normal WI38 cells,45 ± 13 nM
same,"IC50 against WI38 cells, fold higher than IC50 of staurosporine",normal WI38 cells,about 3 fold
same,"IC50 against WI38 cells, fold higher than IC50 against cancer (MCF-7) cells",normal WI38 cells,24 fold
same,early apoptotic effect,MCF-7 cells [2],6.15%
same,late apoptosis percentage,MCF-7 cells [2],13.81%
same,necrosis percent,MCF-7 cells [2],4.37%
same,%G0–G1,MCF-7 cells [3],45.26%
same,%G2/M,MCF-7 cells [3],18.03%
same,%Pre-G1,MCF-7 cells [3],24.33%
same,%S,MCF-7 cells [3],36.71%
same,IC50,PDGFR-α,0.21 ± 0.04 nM
same,IC50,HER-2,0.3 ± 0.05 nM
same,IC50,VEGFR-2,1.05 ± 0.02 nM
same,"VEGFR-2 inhibitory effect, fold less than Sorafenib",VEGFR-2,about 6.2 fold
same,IC50,EGFR,0.11 ± 0.03 nM
"CCOC(=O)C1=C(N)NC2=C(C(=O)CC(C)(C)C2)C1c1ccc(S(=O)(=O)c2ccccc2)cc1 (stereo not drawn) [Compound 4c, Ethyl 2-amino-7,7-dimethyl-5-oxo-4–(4-(phenylsulfonyl)phenyl)-1,4,5,6,7,8-hexahydroquinoline-3-carboxylate]",IC50,[1],15 ± 2 nM
"CC1(C)CC(=O)C2=C(C1)NC(N)=C(C(=O)c1ccccc1)C2c1ccc(S(=O)(=O)c2ccccc2)cc1 (stereo not drawn) [Compound 4d, 2-Amino-3-benzoyl-7,7-dimethyl-4–(4-(phenylsulfonyl)phenyl)-4,6,7,8-tetrahydroquinolin-5(1H)-one]",IC50,[1],7 ± 1 nM
same,fold less potent than staurosporine against MCF-7,"[1]; ratio of IC50 values, MCF-7",1.4 fold
"Cc1ccc(C(=O)C2=C(N)NC3=C(C(=O)CC(C)(C)C3)C2c2ccc(S(=O)(=O)c3ccccc3)cc2)cc1 (stereo not drawn) [Compound 4e, 2-Amino-7,7-dimethyl-3–(4-methylbenzoyl)-4–(4-(phenylsulfonyl)phenyl)-4,6,7,8-tetrahydroquinolin-5(1H)-one]",IC50,[1],4 ± 2 nM
same,IC50,normal WI38 cells,14.9 ± 3 nM
same,"IC50 against WI38 cells, fold higher than IC50 of staurosporine",normal WI38 cells,approximately equal
same,"IC50 against WI38 cells, fold higher than IC50 against cancer (MCF-7) cells",normal WI38 cells,4 fold
"CC1(C)CC(=O)C2=C(C1)NC(N)=C(C(=O)c1ccc(Br)cc1)C2c1ccc(S(=O)(=O)c2ccccc2)cc1 (stereo not drawn) [Compound 4f, 2-Amino-3–(4-bromobenzoyl)-7,7-dimethyl-4–(4-(phenylsulfonyl)phenyl)-4,6,7,8-tetrahydroquinolin-5(1H)-one]",IC50,[1],27 ± 14 nM
"COC(=O)C1=C(C)NC2=C(C(=O)CC(C)(C)C2)C1c1ccc(S(=O)(=O)c2ccc(C)cc2)cc1 (stereo not drawn) [Compound 4g, Methyl 2,7,7-trimethyl-5-oxo-4–(4-tosylphenyl)-1,4,5,6,7,8-hexahydroquinoline-3-carboxylate]",IC50,[1],27 ± 3 nM
"CCOC(=O)C1=C(C(F)(F)F)NC2=C(C(=O)CC(C)(C)C2)C1c1ccc(S(=O)(=O)c2ccc(C)cc2)cc1 (stereo not drawn) [Compound 4h, Ethyl 7,7-dimethyl-5-oxo-4–(4-tosylphenyl)-2-(trifluoromethyl)-1,4,5,6,7,8-hexahydroquinoline-3-carboxylate]",IC50,[1],41 ± 6 nM
"CCOC(=O)C1=C(N)NC2=C(C(=O)CC(C)(C)C2)C1c1ccc(S(=O)(=O)c2ccc(C)cc2)cc1 (stereo not drawn) [Compound 4i, Ethyl 2-amino-7,7-dimethyl-5-oxo-4–(4-tosylphenyl)-1,4,5,6,7,8-hexahydroquinoline-3-carboxylate]",IC50,[1],23 ± 3 nM
"Cc1ccc(S(=O)(=O)c2ccc(C3C(C(=O)c4ccccc4)=C(N)NC4=C3C(=O)CC(C)(C)C4)cc2)cc1 (stereo not drawn) [Compound 4j, 2-Amino-3-benzoyl-7,7-dimethyl-4–(4-tosylphenyl)-4,6,7,8-tetrahydroquinolin-5(1H)-one]",IC50,[1],3 ± 5 nM
same,IC50,normal WI38 cells,48 ± 8 nM
same,"IC50 against WI38 cells, fold higher than IC50 of staurosporine",normal WI38 cells,about 3 fold
same,early apoptotic effect,MCF-7 cells [2],3.27%
same,late apoptosis percentage,MCF-7 cells [2],22.03%
same,necrosis percent,MCF-7 cells [2],9.22%
same,cell cycle effect in MCF-7 cells,MCF-7 cells [3],cell cycle disruption at G2/M phase; also recorded: cell cycle arrest at G2/M phase
same,%G0–G1,MCF-7 cells [3],36.99%
same,%G2/M,MCF-7 cells [3],31.17%
same,%Pre-G1,MCF-7 cells [3],34.52%
same,%S,MCF-7 cells [3],31.84%
same,"PDGFR-α inhibition, fold more than sorafenib",PDGFR-α,1.9 fold
same,IC50,PDGFR-α,0.07 ± 0.01 nM
same,"HER-2 inhibition, folds more potent than Sorafenib",HER-2,about 1.6 fold
same,IC50,HER-2,0.17 ± 0.02 nM
same,IC50,VEGFR-2,0.3 ± 0.06 nM
same,"VEGFR-2 inhibitory effect, fold less than Sorafenib",VEGFR-2,~1.8 fold
same,IC50,EGFR,0.07 ± 0.02 nM
"Cc1ccc(C(=O)C2=C(N)NC3=C(C(=O)CC(C)(C)C3)C2c2ccc(S(=O)(=O)c3ccc(C)cc3)cc2)cc1 (stereo not drawn) [Compound 4k, 2-Amino-7,7-dimethyl-3–(4-methylbenzoyl)-4–(4-tosylphenyl)-4,6,7,8-tetrahydroquinolin-5(1H)-one]",IC50,[1],4 ± 1 nM
same,IC50,normal WI38 cells,17.6 ± 9 nM
same,"IC50 against WI38 cells, fold higher than IC50 of staurosporine",normal WI38 cells,approximately equal
same,"IC50 against WI38 cells, fold higher than IC50 against cancer (MCF-7) cells",normal WI38 cells,4 fold
"Cc1ccc(S(=O)(=O)c2ccc(C3C(C(=O)c4ccc(Br)cc4)=C(N)NC4=C3C(=O)CC(C)(C)C4)cc2)cc1 (stereo not drawn) [Compound 4l, 2-Amino-3–(4-bromobenzoyl)-7,7-dimethyl-4–(4-tosylphenyl)-4,6,7,8-tetrahydroquinolin-5(1H)-one]",IC50,[1],7 ± 1 nM
same,fold less potent than staurosporine against MCF-7,"[1]; ratio of IC50 values, MCF-7",1.4 fold
"CN[C@@H]1C[C@H]2O[C@@](C)([C@@H]1OC)n1c3ccccc3c3c4c(c5c6ccccc6n2c5c31)C(=O)NC4 [Staurosporine, reference compound]",IC50,normal WI38 cells,13 ± 2 nM
